In patent EP4107145B1, “PYRAZOLE-INDOLE CONJUGATES FOR PHOTODYNAMIC TREATMENT OF CANCER AND BACTERIAL INFECTIONS” (Univerzita Palackého v Olomouci, priority 2020, dated 2021):

Tests used:
[1] = Absorption and fluorescence properties in water; assay type: physicochemical; conditions: for λem: λex 360 nm for compound 5, 385 nm for compounds 7 and 10
Experimental: All chemicals and solvents were purchased from commercial suppliers and used without further purification unless otherwise specified. Prior to use, N,N-dimethylformamide was stored over molecular sieves (4 Å), while toluene and dichloromethane were dried over anhydrous sodium sulfate. All reactions were performed in oven dried flasks under argon atmosphere with magnetic stirring. Reaction progress was monitored by TLC analysis on Macherey-Nagel™ ALUGRAM® Xtra SIL G/UV254 plates. TLC plates were visualized with UV light (wavelengths 254 and 365 nm) or iodine vapour. Compounds were purified by flash chromatography in a glass column (stationary phase - silicagel, high-purity grade 9385, pore size 60 Å, particle size - 230-400 mesh, supplier Sigma-Aldrich). ^1H and ^13C NMR spectra were recorded at room temperature on a Bruker Avance III 700 spectrometer (700 MHz for ^1H and 176 MHz for ^13C) in CDCl3 as solvent. FT-IR spectra were collected using ATR method on a Bruker Vertex 70v spectrometer with an integrated Platinum ATR accessory. The melting points of crystalline compounds were determined in open capillary tubes with a Buchi M-565 apparatus (temperature gradient - 2 °C/min) and are uncorrected. High-resolution mass spectrometry (HRMS) spectra were obtained in ESI mode on a Bruker MicrOTOF-Q III spectrometer. UV-Vis absorption and fluorescence spectra were registered on an Infinity M200 Pro Tecan microplate reader.
Fluorescence properties of final compounds 5, 7 and 10 were investigated in water. The excitation wavelength λex was set to 360 nm for compound 5 and to 385 nm for compounds 7 and 10. The emission maxima λem of all three compounds are located in the 475-525 nm range, which corresponds to the blue part of the visible light spectrum.
On the other hand, as expected an additional double bond in compound 10, compared to compound 7, caused both a bathochromic shift of the emission maxima. […] Table 2. Absorption and fluorescence characteristics of compounds 5, 7 and 10 in water.

G361 cell line [2] = assay: MTT cell viability assay without irradiation (dark viability); assay type: cell-based, human; conditions: G361, treated 24 h, no irradiation; viability similar to untreated cells
Experimental: G361 cell line (human skin melanoma) was cultivated in DMEM medium supplemented with 10% fetal bovine serum, 1% penicillin/streptomycin, 1% glutamine, at 37 °C in 5% CO2 atmosphere. Viability of cells was determined using the MTT (Sigma-Aldrich) assay in 96-well microplates (10^4 per well in 100 µl of DMEM). The test compounds were added 24 h post plating and the cells were then incubated for additional 24 h. Cells were then exposed to an irradiation in 100 µl of PBS with 5 mM glucose and incubated for further 24 h. After the experiment, 50 µl of MTT (dissolved in PBS) was added and cells were incubated for another 3 h at 37 °C and in 5 % CO2. The media was then carefully replaced with 100 µl of DMSO in order to solubilize the violet formazan crystals. The measurement of absorbance was carried out on reader Synergy HT at 570 nm and 690 nm. The cell viability of the samples was determined as a percentage of the control cell viability (100 × average of test group / average of control group). The data for the determination of EC50 was calculated using the Phototox v. 2.0 software (ZEBET). Dark viability was measured in parallel under the same conditions without irradiation. The viability of cells treated with compounds 5, 7 and 10 for 24 h without irradiation was similar to untreated cells, thus concluding that the compounds have no cytotoxicity up to 10 µM concentrations (Figure 4).

irradiated G361 cells = assay: Photodynamic treatment (LED 414 nm) with MTT cell viability assay; assay type: cell-based; conditions: Homo sapiens, G-361, light or radiation study
Experimental: G361 cell line (human skin melanoma) was cultivated in DMEM medium supplemented with 10% fetal bovine serum, 1% penicillin/streptomycin, 1% glutamine, at 37 °C in 5% CO2 atmosphere. Viability of cells was determined using the MTT (Sigma-Aldrich) assay in 96-well microplates (10^4 per well in 100 µl of DMEM). The test compounds were added 24 h post plating and the cells were then incubated for additional 24 h. Cells were then exposed to an irradiation in 100 µl of PBS with 5 mM glucose and incubated for further 24 h. After the experiment, 50 µl of MTT (dissolved in PBS) was added and cells were incubated for another 3 h at 37 °C and in 5 % CO2. The media was then carefully replaced with 100 µl of DMSO in order to solubilize the violet formazan crystals. The measurement of absorbance was carried out on reader Synergy HT at 570 nm and 690 nm. The cell viability of the samples was determined as a percentage of the control cell viability (100 × average of test group / average of control group). The data for the determination of EC50 was calculated using the Phototox v. 2.0 software (ZEBET). Dark viability was measured in parallel under the same conditions without irradiation. An in-house constructed LED based light source specifically designed for the irradiation of 96-well microplates and Petri dishes (Tomecka et al., CZ302829B6, 2006) was used; a maximal wavelength emission of 414 nm and light intensity set to 20 mW/cm^2. For photodynamic treatments, cultivation medium was aspirated and replaced by PBS supplemented with 5 mM glucose. Immediately after irradiation, PBS was removed and full DMEM was added to cells. The cultivation lasted for subsequent 24 h. All assays were performed in triplicates and repeated independently three times. In an initial experiment, G361 cells were treated with the tested compounds for 24 h and then exposed to light (LED source, 414 nm) with a total irradiation dose of 10 J/cm^2. Viability of cells was quantified 24 h after the irradiation by an MTT assay (Table 3). Subsequently, G361 cells treated with compound 7 were also exposed to total irradiation doses of 1 and 50 J/cm^2. Table 3. EC50 of compounds 5, 7 and 10 in irradiated G361 cells (10 J/cm2).

G361 cell line [3] = assay: Reactive oxygen species (ROS) production, CM-H2DCFDA fluorescence; assay type: cell-based, human; conditions: G361, 0.052 µM, irradiation of 50 J/cm2 (414 nm)
Experimental: ROS was quantified using a CM-H2DCFDA (Invitrogen) solution (10 µl 10 µM DCF + 1 ml PBS) and a microplate reader Synergy HT. Right after adding 50 µl of DCF solution, 25 min incubation and irradiation, the ROS production was determined by measuring fluorescence using Synergy HT reader. An excitation wavelength of 485 nm and an emission wavelength of 548 nm were used.

G361 cells [4] = assay: Mitochondrial membrane potential change assay (JC-1); assay type: cell-based, human; conditions: G361, 0.052 µM, irradiated with 50 J/cm^2 (414 nm)
Experimental: Mitochondrial membrane potential change was monitored by the fluorescent dye JC-1. After 24 h incubation the cells were washed by PBS. Then 50 µl of a JC-1 solution (Sigma-Aldrich) was added (5 mg/ml in DMSO + 5 ml PBS) and cells were incubated at 37 °C and in 5 % CO2 for 20 min. After incubation the cells were washed by PBS twice. The results were expressed as the ratio of the green fluorescence (excitation wavelength - 485 nm, emission wavelength - 548 nm) and red fluorescence (excitation wavelength - 520 nm, emission wavelength - 590 nm) retained within the cells. JC fluorescence was measured using Synergy HT reader.

G361 cells [5] = assay: Comet assay (DNA fragmentation); assay type: cell-based, human; conditions: irradiated with 50 J/cm2
Experimental: Microscope slides were pre-coated with 1% HMP agarose (Qbiogene) dissolved in distilled water. After stiffening, two 1% agarose spots (dissolved in PBS) were made and overlayed with a cover slip. Treated or control G361 cells were trypsinized, rinsed by DMEM and then the mixture of 25 µl of cell suspension and 85 µl of 1% LMP agarose (dissolved in PBS) was added to the microscope slides with agarose gel. The microscope slides were immersed in a lysis buffer with 1% Triton X for 1 h and then placed in an electrophoretic tank and dipped into a cool electrophoresis solution for 40 min. After the electrophoresis (20 V, 350 mA, 20 min), the microscopic slides were immersed in a neutralisation buffer (10 min twice). The samples were then stained by SYBR Green (Invitrogen) for 15 min and scored by the SW Comet Score (TriTek Corp.). In order to determine the extent of DNA fragmentation caused by a combination of compound 7 and irradiation in G361 cells, comet assay was performed (Figure 4). The cells were divided into four groups according to degree of DNA fragmentation: 0-10%, 11-30%, 31-50% and 50-100%. […] Table 5. Degree of DNA fragmentation in G361 cell line treated by compound 7 at 0.052 µM and irradiated with 50 J/cm2.

[6] = tested on: histone H2A.X phosphorylation at Ser-139; assay: DNA damage by immunoblotting of histone H2A.X phosphorylation; assay type: cell-based, human; conditions: G361, treated 24 h
Experimental: After the treatment, cell lysates were prepared in RIPA buffer, then proteins were separated on SDS-polyacrylamide gels and electroblotted onto nitrocellulose membranes. After blocking, overnight incubation with specific primary antibodies and incubation with peroxidase-conjugated secondary antibodies, the peroxidase activity was detected with SuperSignal West Pico reagents (Thermo Scientific) using a CCD camera LAS-4000 (Fujifilm). All primary antibodies were diluted in PBS containing 5% powdered milk and 0.1% Tween 20. The specific antibodies were purchased from Cell Signaling (anti-PARP, clone 46D11; HRP-linked rabbit anti-mouse immunoglobulin), Sigma Aldrich (anti-α-tubulin, clone DM1A), Millipore (anti-phospho-histone H2A.X, Ser139, clone JBW301). To independently confirm DNA damage caused by a combination of compound 7 and irradiation in G361 cells, phosphorylation of histone H2A.X at Ser-139 (yH2A.X) was evaluated using immunoblotting analysis (Figure 5). Increased level of yH2A.X is a well-accepted marker of DNA damage. The cells were treated with different doses of compound 7 for 24 h, then either kept in dark or exposed to light with a total irradiation dose of 1, 10 or 50 J/cm^2 and cultivated for subsequent 24 h. After this period, the cells were harvested and analyzed by immunoblotting.

[7] = tested on: Escherichia coli (DH5alpha); assay: Antimicrobial activity with light irradiation, colony counting; assay type: cell-based; conditions: in combination with blue light irradiation (414 nm), Fig. 6
Experimental: Antimicrobial activity was tested on Escherichia coli (DH5alpha).The cells were grown aerobically at 37°C in LB medium. When reached exponential growth phase, the suspension was diluted with fresh LB and supplemented with test compounds or with diluted DMSO (as a control) and seeded on Petri dishes with agar media. After 5 hours the plates were exposed to light from a light emitting diode source, a maximal wavelength emission of 414 nm, light intensity set to 20 mW/cm^2 (M. Tomecka, et al., CZ302829B6, 2006). The control samples for dark toxicity were not exposed to the light. After irradiation the plates were in the dark incubator at 37 °C for 16 h and then the colonies were counted.

[8] = 24 h, G361, 24 h treatment, 414 nm, total irradiation dose 10 J/cm2, MTT 24 h after irradiation

CCCCCCOc1nn(-c2ccccc2)cc1C#Cc1ccc2c(c1)C(C)(C)C(c1ccccc1)=N2 [Compound 5, 5-{[3-(Hexyloxy)-1-phenyl-1H-pyrazol-4-yl]ethynyl}-3,3-dimethyl-2-phenyl-3H-indole]
λabs [1]: 355 nm | λem [1]: 475 nm | cytotoxicity without irradiation (dark viability) (G361 cell line [2]): > 10 µM | EC50 (irradiated G361 cells; [8]): 6213 ± 38 nM

CCCCCCOc1nn(-c2ccccc2)cc1/C=C/c1ccc2c(c1)C(C)(C)C(c1ccccc1)=N2 [Compound 7, 5-{(E)-2-[3-(Hexyloxy)-1-phenyl-1H-pyrazol-4-yl]ethenyl}-3,3-dimethyl-2-phenyl-3H-indole]
λabs [1]: 380 nm | λem [1]: 495 nm | cytotoxicity without irradiation (dark viability) (G361 cell line [2]): > 10 µM | EC50 (irradiated G361 cells; [8]): 262 ± 2 nM | EC50 (irradiated G361 cells; G361, 414 nm, total irradiation dose 1 J/cm^2): 3080 ± 155 nM | EC50 (irradiated G361 cells; G361, 414 nm, total irradiation dose 50 J/cm^2): 52 nM | ROS production increase in comparison to control cells (G361 cell line [3]): 30% | JC-1 polymer aggregation within mitochondria (mitochondrial membrane potential) (G361 cells [4]): decrease in JC-1 polymer aggregation within mitochondria | DNA fragmentation in comparison with untreated control cells (G361 cells [5]; G361, 0.052 µM): significant DNA fragmentation | relative number of cells, degree of DNA fragmentation 0-10 % (G361 cells [5]; G361, treated, 0.052 µM): 62.83 ± 2.72% | relative number of cells, degree of DNA fragmentation 11-30 % (G361 cells [5]; G361, treated, 0.052 µM): 30.73 ± 4.07% | relative number of cells, degree of DNA fragmentation 31-50 % (G361 cells [5]; G361, treated, 0.052 µM): 4.84 ± 0.65% | relative number of cells, degree of DNA fragmentation 51-100 % (G361 cells [5]; G361, treated, 0.052 µM): 1.6 ± 1.59% | H2A.X phosphorylation (yH2A.X) ([6]; irradiation dose 1 J/cm2 (414 nm)): faint yH2A.X signal | H2A.X phosphorylation (yH2A.X) ([6]; irradiation dose 10 J/cm2 (414 nm)): massive increase of yH2A.X | H2A.X phosphorylation (yH2A.X) ([6]; irradiation dose 50 J/cm2 (414 nm)): massive increase of yH2A.X | H2A.X phosphorylation (yH2A.X) ([6]; kept in dark): did not show any H2A.X phosphorylation | antibacterial effect [7]: antibacterial effect

CCCCCCOc1nn(-c2ccccc2)cc1/C=C/C=C/c1ccc2c(c1)C(C)(C)C(c1ccccc1)=N2 [Compound 10, 5-{(1E, 3E)-4-[3-(Hexyloxy)-1-phenyl-1H-pyrazol-4-yl]buta-1,3-dien-1-yl}-3,3-dimethyl-2-phenyl-3H-indole]
λabs [1]: 380 nm | λem [1]: 525 nm | cytotoxicity without irradiation (dark viability) (G361 cell line [2]): > 10 µM | EC50 (irradiated G361 cells; [8]): 2060 ± 82 nM
